Test results published in ChEMBL document CHEMBL5532682, “Recent advances of tryptanthrin and its derivatives as potential anticancer agents” (RSC Med Chem, 2024).
One block for each molecule: values may come before it.

Key:
[1] = Antiproliferative activity against mouse MC3T3-E1 cells; assay type: toxicity, cell-based
[2] = test system: A549; test: Antiproliferative activity against human A549 cells; assay type: functional, cell-based
[3] = test system: A549; test: Antiproliferative activity against human A549 cells measured after 48 hrs by MTT assay; assay type: functional, cell-based; details: A549, 48 h
[4] = test system: HCT-116; test: Antiproliferative activity against human HCT-116 cells measured after 48 hrs by MTT assay; assay type: functional, cell-based; details: HCT-116, 48 h
[5] = test system: MDA-MB-231; test: Antiproliferative activity against human MDA-MB-231 cells measured after 48 hrs by MTT assay; assay type: functional, cell-based; details: MDA-MB-231, 48 h
[6] = test system: A549; test: Antiproliferative activity against human A549 cells measured after 48 hrs; assay type: functional, cell-based; details: A549, 48 h
[7] = test system: HCT-116; test: Antiproliferative activity against human HCT-116 cells measured after 48 hrs; assay type: functional, cell-based; details: HCT-116, 48 h
[8] = test system: MDA-MB-231; test: Antiproliferative activity against human MDA-MB-231 cells measured after 48 hrs; assay type: functional, cell-based; details: MDA-MB-231, 48 h
[9] = test system: MCF7; test: Antiproliferative activity against human MCF7 cells assessed as inhibition of cell growth; assay type: functional, cell-based
[10] = test system: A549; test: Antiproliferative activity against human A549 cells assessed as inhibition of cell growth; assay type: functional, cell-based
[11] = test system: HeLa; test: Antiproliferative activity against human HeLa cells assessed as inhibition of cell growth; assay type: functional, cell-based
[12] = test system: HT-29; test: Antiproliferative activity against human HT-29 cells; assay type: functional, cell-based
[13] = test system: PANC-1; test: Antiproliferative activity against human PANC-1 cells; assay type: functional, cell-based
[14] = test system: MDA-MB-231; test: Antiproliferative activity against human MDA-MB-231 cells; assay type: functional, cell-based
[15] = Cytotoxicity activity against human HDF cells; assay type: toxicity, cell-based; details: HDF cells (NHDF)

IC50 [2]: > 100 µM
SMILES: O=C1c2ccccc2-n2c1nc1cc(Cl)ccc1c2=O
IC50 [1]: > 100 µM

IC50 [3]: > 100 µM
IC50 [4]: 1.62 µM
IC50 [5]: 48.3 µM
SMILES: CCN(CC)c1cccc2c1C(=O)c1nc3ccccc3c(=O)n1-2

IC50 [3]: > 100 µM
IC50 [4]: > 100 µM
IC50 [5]: > 100 µM
IC50 [6]: > 100 µM
IC50 [7]: > 100 µM
IC50 [8]: > 100 µM
SMILES: O=C1c2c(N3CCCCC3)cccc2-n2c1nc1ccccc1c2=O

IC50 [3]: > 100 µM
IC50 [4]: 45.6 µM
IC50 [5]: > 100 µM
SMILES: CN1CCN(c2cccc3c2C(=O)c2nc4ccccc4c(=O)n2-3)CC1

IC50 [3]: 13.7 µM
IC50 [4]: 90 µM
IC50 [5]: 56.1 µM
IC50 [6]: > 100 µM
IC50 [7]: 1.62 µM
IC50 [8]: 48.3 µM
SMILES: O=C1c2c(N3CCOCC3)cccc2-n2c1nc1ccccc1c2=O

IC50 [9]: 31.6 µM
IC50 [10]: 28.8 µM
IC50 [11]: 7.22 µM
SMILES: O=C1C2C=CC=CC2=NC2/C(=N\Nc3nc(-c4ccc(O)cc4)cs3)c3ccccc3N12 (stereo not drawn)

IC50 [2]: > 100 µM
SMILES: O=C1c2ccccc2-n2c1nc1ccc(F)c(Cl)c1c2=O
IC50 [1]: > 100 µM

IC50 [12]: 77.4 µM
IC50 [13]: 49.4 µM
IC50 [14]: 47.9 µM
SMILES: Cc1nn(Cl)c2c1[C@@]1(C(C#N)=C(N)O2)c2ccccc2-n2c1nc1ccccc1c2=O
IC50 [15]: > 100 µM

IC50 [9]: 52.3 µM
IC50 [10]: 63 µM
IC50 [11]: 40.2 µM
SMILES: COc1ccc(-c2cs/c(=N/N=C3/c4ccccc4-n4c3nc3ccccc3c4=O)n2-c2ccccc2)cc1

IC50 [3]: > 100 µM
IC50 [4]: > 100 µM
IC50 [5]: > 100 µM
IC50 [6]: > 100 µM
IC50 [7]: > 100 µM
IC50 [8]: > 100 µM
SMILES: O=C1c2c(N3CCN(c4ccccn4)CC3)cccc2-n2c1nc1ccccc1c2=O

IC50 [3]: > 100 µM
IC50 [4]: > 100 µM
IC50 [5]: > 100 µM
IC50 [6]: > 100 µM
IC50 [7]: > 100 µM
IC50 [8]: > 100 µM
SMILES: O=C1c2c(ccc(F)c2N2CCN(C(=O)c3ccco3)CC2)-n2c1nc1ccccc1c2=O

IC50 [12]: 90.4 µM
IC50 [13]: 21.4 µM
IC50 [14]: 60.8 µM
SMILES: Cc1n[nH]c2c1[C@@]1(C(C#N)=C(N)O2)c2ccccc2-n2c1nc1ccccc1c2=O
IC50 [15]: > 100 µM

IC50 [3]: > 100 µM
IC50 [4]: > 100 µM
IC50 [5]: > 100 µM
SMILES: O=C1c2c(ccc(Cl)c2N2CCN(c3ccccn3)CC2)-n2c1nc1ccccc1c2=O

IC50 [3]: > 100 µM
IC50 [4]: > 100 µM
IC50 [5]: 89.7 µM
SMILES: CN(C)c1c(F)ccc2c1C(=O)c1nc3ccccc3c(=O)n1-2

IC50 [2]: > 100 µM
SMILES: O=C1c2ccccc2-n2c1nc1ccc(Cl)c(Cl)c1c2=O
IC50 [1]: > 100 µM

IC50 [6]: > 100 µM
IC50 [7]: > 100 µM
IC50 [8]: > 100 µM
SMILES: CN(C)c1cccc2c1C(=O)c1nc3ccccc3c(=O)n1-2

IC50 [3]: 18.6 µM
IC50 [4]: 25.7 µM
IC50 [5]: 14.7 µM
SMILES: CN(C)c1c(Cl)ccc2c1C(=O)c1nc3ccccc3c(=O)n1-2

IC50 [3]: 22.8 µM
IC50 [4]: > 100 µM
IC50 [5]: 32.8 µM
SMILES: O=C1c2c(ccc(Cl)c2N2CCN(CCO)CC2)-n2c1nc1ccccc1c2=O

IC50 [9]: 45.9 µM
IC50 [10]: 52 µM
IC50 [11]: 65.5 µM
SMILES: COc1ccc(-c2csc(N/N=C3/c4ccccc4N4C(=O)C5C=CC=CC5=NC34)n2)cc1 (stereo not drawn)

IC50 [2]: 1.03 µM
SMILES: O=C1c2c(ccc(F)c2Cl)-n2c1nc1cc(Cl)ccc1c2=O
IC50 [1]: 82 µM

IC50 [3]: > 100 µM
IC50 [4]: > 100 µM
IC50 [5]: 34.2 µM
SMILES: O=C1c2c(N3CCN(CCO)CC3)cccc2-n2c1nc1ccccc1c2=O

IC50 [3]: > 100 µM
IC50 [4]: > 100 µM
IC50 [5]: > 100 µM
SMILES: CN1CCN(c2c(Cl)ccc3c2C(=O)c2nc4ccccc4c(=O)n2-3)CC1

IC50 [9]: 44.4 µM
IC50 [10]: 28.8 µM
IC50 [11]: 43.8 µM
SMILES: N#Cc1ccc(-c2cs/c(=N/N=C3/c4ccccc4-n4c3nc3ccccc3c4=O)n2-c2ccccc2)cc1

IC50 [9]: 46.1 µM
IC50 [10]: 65.5 µM
IC50 [11]: 75.2 µM
SMILES: O=c1c2ccccc2nc2n1-c1ccccc1/C2=N/N=c1/scc(-c2ccc(Cl)cc2)n1-c1ccccc1

IC50 [3]: 1.2 µM
IC50 [4]: 2.01 µM
IC50 [5]: 0.8 µM
SMILES: CCN(CC)c1c(F)ccc2c1C(=O)c1nc3ccccc3c(=O)n1-2

IC50 [3]: > 100 µM
IC50 [4]: > 100 µM
IC50 [5]: > 100 µM
SMILES: Cc1ccc2c(c1N1CCN(c3ccccn3)CC1)C(=O)c1nc3ccccc3c(=O)n1-2

IC50 [6]: > 100 µM
IC50 [7]: > 100 µM
IC50 [8]: > 100 µM
SMILES: O=C1c2cc(Cl)c(N3CCCCC3)cc2-n2c1nc1ccccc1c2=O

IC50 [9]: 31.6 µM
IC50 [10]: 64.9 µM
IC50 [11]: 55.5 µM
SMILES: O=c1c2ccccc2nc2n1-c1ccccc1/C2=N/N=c1/scc(-c2ccc(Br)cc2)n1-c1ccccc1

SMILES: Cc1ccc2c(c1N1CCNCC1)C(=O)c1nc3ccccc3c(=O)n1-2
IC50 [3]: > 100 µM
IC50 [4]: 67.2 µM
IC50 [5]: 69.8 µM

IC50 [3]: > 100 µM
IC50 [4]: > 100 µM
IC50 [5]: 58.7 µM
SMILES: Cc1ccc2c(c1N1CCOCC1)C(=O)c1nc3ccccc3c(=O)n1-2

IC50 [3]: > 100 µM
IC50 [4]: > 100 µM
IC50 [5]: > 100 µM
SMILES: Cc1ccc2c(c1N1CCN(CCO)CC1)C(=O)c1nc3ccccc3c(=O)n1-2
